US20260049101A1, “TOPICAL TREATMENT OF SKIN CANCER USING OLIGOPEPTIDES” (BACOBA AG, priority 2022, published 2026)
Square brackets hold non-standard residues; d marks the D form. Peptide text beside a SMILES is read from it. * marks the point of attachment. NH(1-CH2NMe2-cBu) = CN(C)CC1(N*)CCC1; Gly(octyl) = CCCCCCCC[C@H](N)C(=O)O; Oxazole4CO(2-Me) = Cc1nc(C(=O)*)co1; hCha = N[C@@H](CCC1CCCCC1)C(=O)O; Nle = CCCC[C@H](N)C(=O)O; Aib = CC(C)(N)C(=O)O; βAla = NCCC(=O)O

Test system: cutaneous squamous cell carcinoma cell line SCC12
Experiment: In vitro anti-proliferative assay (resazurin) in SCC12
Format: cell-based
Details: SCC12, 72 hours
Excerpt: Methodology. The cutaneous squamous cell carcinoma cell culture SCC12 was cultivated in keratinocyte-SFM media (KSFM, Cat #17005042, Gibco) supplemented with human recombinant epidermal growth factor 1-53 (EGF 1-53) and bovine pituitary extract (BFE).
Vehicle treated wells were set to 100% viability.

SMILES | IC50
Cc1nc(C(=O)N2CCC[C@H]2C(=O)N[C@@H](CCC2CCCCC2)C(=O)N[C@@H](CC(C)C)C(=O)NC(C)(C)C(=O)N[C@@H](CC(C)C)C(=O)N[C@@H](CC(C)C)C(=O)NC(C)(C)C(=O)NC(C)(C)C(=O)NCCC(=O)NC2(CN(C)C)CCC2)co1 [Compound 6025, (2S)-2-[(2S)-4-cyclohexyl-2-{[(2S)-1-(2-methyl-1,3-oxazole-4-carbonyl)pyrrolidin-2-yl]formamido}butanamido]-N-(1-{[(1S)-1-{[(1S)-1-({1-[(1-{[2-({1-[(dimethylamino)methyl]cyclobutyl}carbamoyl)ethyl]carbamoyl}-1-methylethyl)carbamoyl]-1-methylethyl}carbamoyl)-3-methylbutyl]carbamoyl}-3-methylbutyl]carbamoyl}-1-methylethyl)-4-methylpentanamide] ({Oxazole4CO(2-Me)}-P[hCha]L[Aib]LL[Aib][Aib][βAla]-{NH(1-CH2NMe2-cBu)}) | 396 nM
CCCCCCCC[C@H](NC(=O)[C@@H]1CCCN1C(=O)c1coc(C)n1)C(=O)N[C@@H](CC(C)C)C(=O)NC(C)(C)C(=O)N[C@@H](CC(C)C)C(=O)N[C@@H](CC(C)C)C(=O)NC(C)(C)C(=O)NC(C)(C)C(=O)NCCC(=O)NC1(CN(C)C)CCC1 [Compound 6253, (2S)—N-[(1S)-1-[(1-{[(1S)-1-{[(1S)-1-({1-[(1-{[2-({1-[(dimethylamino)methyl]cyclobutyl}carbamoyl)ethyl]carbamoyl}-1-methylethyl)carbamoyl]-1-methylethyl}carbamoyl)-3-methylbutyl]carbamoyl}-3-methylbutyl]carbamoyl}-1-methylethyl)carbamoyl]-3-methylbutyl]-2-{[(2S)-1-(2-methyl-1,3-oxazole-4-carbonyl)pyrrolidin-2-yl]formamido}decanamide] ({Oxazole4CO(2-Me)}-P[Gly(octyl)]L[Aib]LL[Aib][Aib][βAla]-{NH(1-CH2NMe2-cBu)}) | 140 nM
Cc1nc(C(=O)N2CCC[C@H]2C(=O)N[C@@H](Cc2ccccc2)C(=O)N[C@@H](CC(C)C)C(=O)NC(C)(C)C(=O)N[C@@H](CC(C)C)C(=O)N[C@@H](CC(C)C)C(=O)NC(C)(C)C(=O)NC(C)(C)C(=O)NCCC(=O)NC2(CN(C)C)CCC2)co1 [Compound 6328, (2S)—N-(1-{[(1S)-1-{[(1S)-1-({1-[(1-{[2-({1-[(dimethylamino)methyl]cyclobutyl}carbamoyl)ethyl]carbamoyl}-1-methylethyl)carbamoyl]-1-methylethyl}carbamoyl)-3-methylbutyl]carbamoyl}-3-methylbutyl]carbamoyl}-1-methylethyl)-4-methyl-2-[(2S)-2-{[(2S)-1-(2-methyl-1,3-oxazole-4-carbonyl)pyrrolidin-2-yl]formamido}-3-phenylpropanamido]pentanamide] ({Oxazole4CO(2-Me)}-PFL[Aib]LL[Aib][Aib][βAla]-{NH(1-CH2NMe2-cBu)}) | 1660 nM
CCCC[C@H](NC(=O)[C@@H]1CCCN1C(=O)c1coc(C)n1)C(=O)N[C@@H](CC(C)C)C(=O)NC(C)(C)C(=O)N[C@@H](CC(C)C)C(=O)N[C@@H](CC(C)C)C(=O)NC(C)(C)C(=O)NC(C)(C)C(=O)NCCC(=O)NC1(CN(C)C)CCC1 [Compound 6781, (2S)—N-[(1S)-1-[(1-{[(1S)-1-{[(1S)-1-({1-[(1-{[2-({1-[(dimethylamino)methyl]cyclobutyl}carbamoyl)ethyl]carbamoyl}-1-methylethyl)carbamoyl]-1-methylethyl}carbamoyl)-3-methylbutyl]carbamoyl}-3-methylbutyl]carbamoyl}-1-methylethyl)carbamoyl]-3-methylbutyl]-2-{[(2S)-1-(2-methyl-1,3-oxazole-4-carbonyl)pyrrolidin-2-yl]formamido}hexanamide] ({Oxazole4CO(2-Me)}-P[Nle]L[Aib]LL[Aib][Aib][βAla]-{NH(1-CH2NMe2-cBu)}) | 6850 nM
